Measurements reported in patent EP2067489B1, “Glyco-molecular imaging method for grade classification of liver fibrosis and its glyco-molecular imaging agent thereof” (Institute of Nuclear Energy Research Atomic Energy Council, priority 2007, dated 2009).

Experiment: Storage stability at room temperature
Type: physicochemical
Conditions: stability to air and water-deliquescence

## O=C(O)CN(CCN1CC(=O)OC(=O)C1)CCN1CC(=O)OC(=O)C1 [DTPA anhydride]
  storage time in room temperature: much unstable and easy to water-deliquescent
